How the values were obtained:
Format in all cases: biochemical
EbPPK = target: T1, EbPPK (Erysipelotrichaceae bacterium, UniProt P0DY74); experiment: coupled hexokinase / G6PD assay, […] nm; settings: 100 mM Tris-HCl pH 8.0, 35 °C
T1 construct: gene DHS57_05705; synthesized gene expressed in E. coli BL21(DE3) from pXMJ-19, Ni-NTA purified
T1 sequence (P0DY74 1-298): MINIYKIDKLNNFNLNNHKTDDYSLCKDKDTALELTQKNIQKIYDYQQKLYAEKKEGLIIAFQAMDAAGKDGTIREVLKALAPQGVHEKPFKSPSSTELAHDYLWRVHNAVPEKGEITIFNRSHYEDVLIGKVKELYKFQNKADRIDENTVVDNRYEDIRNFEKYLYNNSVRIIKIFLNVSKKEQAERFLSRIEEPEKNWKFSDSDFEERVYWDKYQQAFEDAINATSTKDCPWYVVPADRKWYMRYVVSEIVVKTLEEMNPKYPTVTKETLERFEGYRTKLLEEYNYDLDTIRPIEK

PaPPK2II = target: T2, PaPPK2II (Pseudomonas aeruginosa, UniProt Q9I154); experiment: coupled hexokinase / G6PD assay, […] nm; settings: 100 mM Tris-HCl pH 8.0, 35 °C, 10 mM ADP, 50 mM polyP6, 25 mM MgCl2
T2 construct: gene PA2428; expressed in E. coli BL21(DE3) from pET-28a, Ni-NTA purified
T2 sequence (Q9I154 1-304): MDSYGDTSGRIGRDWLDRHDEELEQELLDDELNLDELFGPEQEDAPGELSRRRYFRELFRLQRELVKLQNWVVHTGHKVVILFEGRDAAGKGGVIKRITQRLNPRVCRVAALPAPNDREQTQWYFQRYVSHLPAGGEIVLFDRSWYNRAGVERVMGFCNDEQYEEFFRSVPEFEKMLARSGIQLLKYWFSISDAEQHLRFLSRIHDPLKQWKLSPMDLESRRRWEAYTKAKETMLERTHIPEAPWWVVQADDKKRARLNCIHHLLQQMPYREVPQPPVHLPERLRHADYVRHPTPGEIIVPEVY

PaPPK2III = target: T3, PaPPK2III (Pseudomonas aeruginosa, UniProt Q9HYF1); experiment: coupled hexokinase / G6PD assay, […] nm; settings: 100 mM Tris-HCl pH 8.0, 35 °C, 10 mM ADP, 50 mM polyP6, 25 mM MgCl2
T3 construct: gene PA3455; expressed in E. coli BL21(DE3) from pET-28a, Ni-NTA purified
T3 sequence (Q9HYF1 1-496): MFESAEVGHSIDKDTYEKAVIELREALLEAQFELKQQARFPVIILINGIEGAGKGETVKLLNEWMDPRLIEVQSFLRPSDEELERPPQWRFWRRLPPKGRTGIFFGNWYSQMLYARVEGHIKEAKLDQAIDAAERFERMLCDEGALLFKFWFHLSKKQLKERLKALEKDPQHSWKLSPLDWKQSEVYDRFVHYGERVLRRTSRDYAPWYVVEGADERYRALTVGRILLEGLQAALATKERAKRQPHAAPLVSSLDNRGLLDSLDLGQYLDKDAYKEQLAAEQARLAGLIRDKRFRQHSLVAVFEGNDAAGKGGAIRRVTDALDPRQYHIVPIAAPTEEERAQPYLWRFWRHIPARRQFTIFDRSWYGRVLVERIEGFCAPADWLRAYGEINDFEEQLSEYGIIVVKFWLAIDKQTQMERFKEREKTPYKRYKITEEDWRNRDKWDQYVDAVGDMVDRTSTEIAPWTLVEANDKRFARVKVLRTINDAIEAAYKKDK

GS = target: T4, GS (Corynebacterium glutamicum, UniProt H7C697); experiment: L-glutamine production, HPLC with OPA derivatization; settings: Tris-HCl pH 8.0, 37 °C, 100 mM (NH4)2SO4, 150 mM ATP, 50 mM MgCl2
T4 construct: gene glnA; expressed in E. coli BL21(DE3), Ni-NTA purified
T4 sequence (H7C697 1-477): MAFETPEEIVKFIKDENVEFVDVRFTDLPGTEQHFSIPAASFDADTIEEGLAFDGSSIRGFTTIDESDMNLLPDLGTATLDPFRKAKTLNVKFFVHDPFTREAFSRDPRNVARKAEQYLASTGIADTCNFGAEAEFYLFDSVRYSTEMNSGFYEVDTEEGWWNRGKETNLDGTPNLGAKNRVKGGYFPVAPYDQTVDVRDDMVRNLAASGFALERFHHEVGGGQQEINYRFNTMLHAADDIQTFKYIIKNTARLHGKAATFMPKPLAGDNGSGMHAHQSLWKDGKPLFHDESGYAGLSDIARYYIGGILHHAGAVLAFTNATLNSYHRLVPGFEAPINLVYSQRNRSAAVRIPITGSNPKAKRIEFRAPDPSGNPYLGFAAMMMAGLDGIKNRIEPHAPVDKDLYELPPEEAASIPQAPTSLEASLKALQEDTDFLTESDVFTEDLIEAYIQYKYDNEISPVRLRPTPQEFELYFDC

ChPPK [1] = target: T5, ChPPK (Cytophaga hutchinsonii, UniProt A0A6N4SMB5); experiment: coupled hexokinase / G6PD assay, […] nm, double reciprocal plot; settings: 100 mM Tris-HCl pH 8.0, 35 °C, MgCl2; polyP6 1 to 7.5 mM, ADP as co-substrate
T5 construct: gene CHU_0107; synthesized gene expressed in E. coli BL21(DE3) from pXMJ-19, Ni-NTA purified
T5 sequence (A0A6N4SMB5 1-305): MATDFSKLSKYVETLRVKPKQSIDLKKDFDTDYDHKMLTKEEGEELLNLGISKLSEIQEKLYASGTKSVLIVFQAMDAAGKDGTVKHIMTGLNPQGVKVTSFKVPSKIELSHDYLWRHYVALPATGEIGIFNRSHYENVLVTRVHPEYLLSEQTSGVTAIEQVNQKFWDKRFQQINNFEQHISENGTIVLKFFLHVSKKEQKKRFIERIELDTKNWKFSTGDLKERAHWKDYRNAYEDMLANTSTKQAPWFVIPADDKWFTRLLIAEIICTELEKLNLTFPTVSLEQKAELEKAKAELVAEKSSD

ChPPK [2] = target: T6, ChPPK (Cytophaga hutchinsonii, UniProt A0A6N4SMB5, D82N); experiment: as above; settings: 100 mM Tris-HCl pH 8.0, 35 °C, MgCl2; polyP6 1 to 7.5 mM, ADP as co-substrate
T6 construct: gene CHU_0107; synthesized gene expressed in E. coli BL21(DE3) from pXMJ-19, Ni-NTA purified

ChPPK [3] = target: T7, ChPPK (Cytophaga hutchinsonii, UniProt A0A6N4SMB5, K103E); experiment: as above; settings: 100 mM Tris-HCl pH 8.0, 35 °C, MgCl2; polyP6 1 to 7.5 mM, ADP as co-substrate
T7 construct: gene CHU_0107; synthesized gene expressed in E. coli BL21(DE3) from pXMJ-19, Ni-NTA purified
T7 sequence (A0A6N4SMB5 entry or part of it K103E): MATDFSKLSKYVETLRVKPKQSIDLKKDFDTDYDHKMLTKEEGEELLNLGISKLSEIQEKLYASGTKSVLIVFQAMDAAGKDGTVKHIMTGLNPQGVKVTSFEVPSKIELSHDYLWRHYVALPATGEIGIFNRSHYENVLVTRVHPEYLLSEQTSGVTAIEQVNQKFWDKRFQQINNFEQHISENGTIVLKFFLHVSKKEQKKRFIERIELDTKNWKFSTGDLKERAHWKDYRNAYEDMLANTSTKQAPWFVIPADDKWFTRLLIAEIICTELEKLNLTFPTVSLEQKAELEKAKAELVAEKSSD

T6 sequence (A0A6N4SMB5 entry or part of it D82N): as the sequence (A0A6N4SMB5 entry or part of it K103E) above, with D82N, E103K counted along it

Molecule: Nc1ncnc2c1ncn2[C@@H]1O[C@H](COP(=O)(O)OP(=O)(O)O)[C@@H](O)[C@H]1O [ADP]
- coupled hexokinase / G6PD assay, 340 nm (EbPPK; 10 mM ADP, 50 mM polyP6, 25 mM MgCl2): polyP3, polyP6 and polyPn were carried out to show the specific activities
- coupled hexokinase / G6PD assay, 340 nm (PaPPK2II): the specific activities of the seven PPK enzymes
- coupled hexokinase / G6PD assay, 340 nm (PaPPK2III): the specific activities of the seven PPK enzymes

Molecule: Nc1ncnc2c1ncn2[C@@H]1O[C@H](COP(=O)(O)O)[C@@H](O)[C@H]1O [AMP]
- coupled hexokinase / G6PD assay, 340 nm (EbPPK; 10 mM AMP, polyP6, 25 mM MgCl2): EbPPK was capable of the best catalytic efficiency for converting AMP

Molecule: N[C@@H](CCC(=O)O)C(=O)O [L-glutamate]
- L-glutamine production, HPLC with OPA derivatization (GS): We performed glutamine production from glutamate with GS enzyme

Molecule: polyP6
- Km (ChPPK [1]): 2300 ± 20 µM
- Km (ChPPK [2]): 2120 ± 10 µM
- Km (ChPPK [3]): 2240 ± 20 µM

— paper PMC10401862, “A high-throughput dual system to screen polyphosphate kinase mutants for efficient ATP regeneration in L-theanine biocatalysis” (Biotechnology for Biofuels and Bioproducts, 2023)
